From PubChem BioAssay AID179 (DTP/NCI, 2004)
pEC50, pIC50: −log10 of the molar value. Where “and” joins values, the source holds several entries; their conditions need not be identical. Identical values can stand only once. Calls of active or inactive are those of the source.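 Rule for the calls: active = compounds giving half or more protection of infected cells from virus-caused growth loss, again on retest; inactive = the rest.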 Where a SMILES comes first, the peptide text is derived from it. The star is where a group is joined. Cbz = O=C(OCc1ccccc1)*; Boc = CC(C)(C)OC(=O)*; OBn = c1ccc(CO*)cc1; tBu = CC(C)(C)*

Test system: CEM cells HIV-1 protection, formazan growth assay
Assay: NCI AIDS Antiviral Assay
Details: for pIC50: measured here: growth of uninfected CEM cells
In short: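 Screen of anti-HIV-1 activity in human CEM cells using a formazan-based growth measurement at five drug concentrations. Hits with 50% or greater protection were repeated, and confirmation required reproducible complete protection.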

Row | SMILES | pEC50 | pIC50 | outcome
1 | CCOc1csc([C@H]2CCC3[C@@H]4CC=C5C[C@@H](OC(C)=O)CC[C@]5(C)C4CC[C@@]32C)n1 (some centres undefined) | < 4.25 | < 4.25 | 
2 | COc1c(F)c(F)c(/C(O)=C\c2nc3ccccc3[nH]c2=O)c(F)c1F | < 3.70 | 3.71 | 
3 | O=C(c1cccc([N+](=O)[O-])c1)c1c(O)c2ccccc2oc1=O | < 3.70 | 4.02 | 
4 | NC(=S)C(=S)N=Cc1c(N)[nH]n(-c2ccccc2)c1=O | < 3.92 | 4.15 | 
5 | CN(C(=O)c1ccccc1S)c1ccccc1 | < 3.70 | 4.69 | 
6 | c1cc(CSP234N5CCN2CCN3CCN4CC5)ccc1CSP123N4CCN1CCN2CCN3CC4 | < 4.00 | 4.44 | 
7 | O=c1[nH]nc(-c2ccccc2)n1/N=C\CC/C=N\n1c(-c2ccccc2)n[nH]c1=O |  |  | inactive
8 | CCOC(=O)C1=C(O)CSC1=Nc1ccc(N=C2SCC(O)=C2C(=O)OCC)cc1 |  |  | inactive
9 | c1cnc(NC(Nc2cnccn2)C2CCCCC2)cn1 | < 3.62 | < 3.62 | 
10 | Cc1ccc(SSCCCCCS(=O)O)cc1 |  |  | inactive
11 | CN(CCO)CC(O)Cn1cnc2c1c(=O)n(C)c(=O)n2C (centres undefined) (tested in a mixture with another compound) | < 3.70 | < 3.70 | 
12 | CCOC(=O)CCC(NC(=O)c1ccc(Nc2nc3cc(C(F)(F)F)ccc3nc2-c2ccccc2)cc1)C(=O)OCC (centres undefined) | < 3.70 | 5.09 | 
13 | COc1ccc(OC)c(/C=C/c2ccnc3ccccc23)c1 | 7.20 | 5.89 | 
14 | N#Cc1ccc(-n2cccc2)cc1 | < 3.70 | < 3.70 | 
15 | O=Cc1ccc2c(c1)C(O)NC(=O)O2 (centres undefined) | 4.55 | 4.14 | 
16 | BrCc1cccc(C[P+](c2ccccc2)(c2ccccc2)c2ccccc2)c1 | < 3.70 | 5.93 | 
17 | CC(C(=O)NCCNC(=O)CCC(=O)N(C)O)C(=O)NCCNC(=O)CCC(=O)N(C)O | < 3.70 | 3.82 | 
18 | O=S(=O)(c1ccccc1)C1CN2OC1(S(=O)(=O)c1ccccc1)CC21CCCCC1 (centres undefined) |  |  | inactive
19 | CCC(NC1=NCCO1)c1cccs1 (centres undefined) | < 3.70 | 4.10 | 
20 | O=Nc1c(-c2ccc(Cl)cc2)nc2ncccn12 | < 3.70 | 4.42 | 
21 | CC1COC(C)(C)P(=O)(c2ccccc2)C1 (centres undefined) | < 2.98 | < 2.98 | 
22 | COc1ccc(C2OC(N)=C(C#N)C3=C2CCCC3C)cc1OC (centres undefined) | < 3.70 | < 3.70 | 

Row | SMILES | pEC50 | pIC50 | outcome
23 | O=[N+]([O-])c1cccnc1-n1cnc2ccccc21 | < 3.70 | < 4.00 | 
24 | CC(C)(C)c1cc(-c2cc(C(C)(C)C)[nH]n2)n[nH]1 | < 3.70 | < 3.70 | 
25 | CN(C)c1nc2sc3c(c2c(=O)o1)CCCC3 | < 3.70 | 4.29 | 
26 | Cc1ccc(C)c2c1C1CCCCC3(OCCCO3)C21O (centres undefined) | < 3.70 | < 3.70 | 
27 | O=c1c(F)cn(Cc2c(Cl)cccc2Cl)c(=O)n1Cc1c(Cl)cccc1Cl | < 3.70 | 4.32 | 
28 | CCCCCCCCCCCCCCCCOC[C@@H](COC(c1ccccc1)(c1ccccc1)c1ccccc1)O[P+](=S)OC (some centres undefined) | < 3.70 | 4.65 | 
29 | CC12CCC3CCCCC3(OO1)[C@@H](OCc1ccccc1)O2 (some centres undefined) | < 4.53 | < 4.53 | 
30 | COC(=O)CNC(=O)C(C)NC(=O)C(CC(=O)OCc1ccccc1)NC(=O)OCc1ccccc1 (stereo not drawn) (Cbz-Asp(OBn)-Ala-Gly-OMe; configuration not given here) | < 3.70 | 3.97 | 
31 | CC1=Cc2cccc(C)c2C(=O)C1=O | < 4.41 | 5.19 | 
32 | COc1cc(N=NN(C)C)c(C(C)c2c3cc(OC)c(OC)cc3cc[n+]2C)cc1OC (centres undefined) | < 3.70 | 4.68 | 
33 | O=P(OCC1CCCO1)(OCC1CCCO1)OCC1CCCO1 (centres undefined) |  |  | inactive
34 | CCNC(=S)N/N=C/c1cc(OC)ccc1O | < 3.70 | 3.97 | 
35 | CCOC(=O)C(CCN1CCC2(CC1)C(=O)N(C)CN2c1ccccc1)C(=O)OCC | < 3.70 | < 3.70 | 
36 | CC1(C)COC(c2cccc3c2C(=O)c2cccc(Cl)c2-3)=N1 | < 4.08 | 4.10 | 
37 | Cc1ccc(CCNC(=S)SCC(NC(=O)CCC(N)C(=O)O)C(=O)NCC(=O)O)cc1 (centres undefined) | < 3.99 | 5.06 | 
38 | CN(C)CCCNc1c(C#N)[n+]([O-])c2cc(Cl)ccc2[n+]1[O-] | < 5.70 | 6.00 | 
39 | CNc1ccccc1S(=O)(=O)c1cc(Cl)ccc1OC | 3.82 | < 3.70 | 
40 | CCCOc1ccc(/C(Cl)=C(\C=O)c2ccc(OC)c(OC)c2)cc1OCCC | < 5.32 | < 5.32 | 
41 | COP(=O)(OC)C(N)CCSC (centres undefined) | < 3.70 | < 3.70 | 
42 | O=C1CN(C=C2C(=O)NC(=O)NC2=O)C(=S)N1 | < 3.70 | < 3.70 | 
43 | Cc1cn(C2CC(C/C=[N+](\[O-])CC3OC(n4cc(C)c(=O)[nH]c4=O)CC3O[Si](C)(C)C(C)(C)C)C(CO[Si](C)(C)C(C)(C)C)O2)c(=O)[nH]c1=O (centres undefined) | < 3.70 | 4.44 | 
44 | CCC(C)C(NC(=O)C(N)CCCCN)C(=O)NC(CCC(=O)O)C(=O)NC(CO)C(=O)NC(C)C(=O)NC(C(=O)NC(CC(N)=O)C(=O)NC(CC(C)C)C(=O)NC(CO)C(=O)NC(CCC(N)=O)C(=O)O)C(C)O (centres undefined) (H-KIESATNLSQ-OH; configuration not given here) | < 4.24 | < 4.24 | 

Row | SMILES | pEC50 | pIC50 | outcome
45 | CC1=C(C#N)C(C#N)(C#N)C(NN(C)C)C1 (centres undefined) | < 3.70 | 5.42 | 
46 | Cc1ccc(C(=O)Nc2ccc(CP(=O)(O)O)cc2CP(=O)(O)O)cc1NC(=O)c1cccc(NC(=O)Nc2cccc(C(=O)Nc3cc(C(=O)Nc4ccc(CP(=O)(O)O)cc4CP(=O)(O)O)ccc3C)c2)c1 | < 4.00 | < 4.00 | 
47 | C/C=C(/CCC1NCCc2c1[nH]c1ccccc21)[Si](C)(C)C (centres undefined) |  |  | inactive
48 | COc1ccc(Br)c(CCCCCCCC(=O)O)c1 | < 4.00 | < 4.00 | 
49 | COC(=O)c1ccc(NCC2=CC(=O)C=CC2=O)cc1 | < 3.70 | 6.00 | 
50 | O=c1[nH][nH]c(=O)c2nc(Nc3ccc(Cl)cc3)ncc12 | < 4.46 | < 4.46 | 
51 | Nc1nnnn1-c1ccccc1 | < 3.70 | < 3.70 | 
52 | CCC1(COC(NC(=O)c2ccccc2)(C(F)(F)F)C(F)(F)F)COC1 | < 3.70 | 3.94 | 
53 | O=C(c1ccccc1)C(O)(Cc1ccccc1)c1ccccc1 (centres undefined) | < 4.07 | 4.15 | 
54 | N/C(=N/N=C/c1ccc2ccccc2n1)NO |  |  | inactive
55 | CN1c2ccccc2C(=O)NC12CCN(Cc1ccccc1)CC2 | < 3.70 | 3.92 | 
56 | C1CCC2(CC1)CCCN2 | < 3.70 | < 3.70 | 
57 | COc1ccccc1C(=O)NCC1CCCN2CCCCC12 (centres undefined) | < 3.70 | < 3.70 | 
58 | Cn1cc(C2NC(=O)c3ccccc3N2)c2ccccc21 (centres undefined) | < 3.70 | 6.93 | 
59 | Cc1cc(N=Nc2ccc(-c3ccc(N=Nc4ccc(O)c(C(=O)O)c4)cc3)cc2)c(C)cc1N | < 4.00 | 4.38 | 
60 | O=C(Nc1cc2c(=O)oc3ccccc3c2oc1=O)c1cccnc1 | < 4.00 | < 4.00 | 
61 | CC(=O)N1C(Nc2cnc3ccccc3c2)CCN1c1ccccc1 (centres undefined) | < 3.70 | 4.75 | 
62 | COc1ccc2c(c1)OCC1Cc3ccccc3OC21 (centres undefined) | < 3.70 | 4.27 | 
63 | O=c1n(Cc2ccccc2)c(=O)n2c(=O)n(Cc3ccccc3)c(=O)n12 | < 3.70 | 3.83 | 
64 | COC(=O)C1=C(O)c2ccc(Cl)cc2S(=O)(=O)N1C | < 3.70 | 4.06 | 
65 | COc1cc(=O)cc2n(c1=O)CCC2 | < 3.35 | < 3.35 | 
66 | O=C1NC(N/N=C\C(O)C(O)C(O)CO)=N/C1=C/c1ccccc1 (centres undefined) | < 3.70 and 4.42 | 4.05 and 3.98 | 

Row | SMILES | pEC50 | pIC50 | outcome
67 | CCOC(=O)c1c(NC(=O)CCl)ssc1=S | < 3.70 | 4.30 | 
68 | O=C1NC2(CCCCC2)C2=C1CCCCC2 |  |  | inactive
69 | CCCCC1Sc2cc(OC)cc3c2N(CCN3)C1=O (centres undefined) | < 3.70 | 4.55 | 
70 | CC12CC3CC(C)(C1)CC(SCCN)(C3)C2 | < 3.70 | 4.42 | 
71 | O=C([O-])C1([n+]2c(-c3ccccc3)cc(-c3ccccc3)cc2-c2ccccc2)CC1 | < 3.70 | 4.09 | 
72 | Cc1cn(C2OC(CO)C(CC(N)=O)C2O)c(=O)[nH]c1=O (centres undefined) | < 3.70 | < 3.70 | 
73 | CCC[C@@H]1C(=O)N=C(N)N1C(=O)OCc1ccccc1 | < 3.70 | < 3.70 | 
74 | CCOC(=O)c1nc2cc(F)c(F)cc2nc1NCc1cc(OC)c(OC)c(OC)c1 | < 4.00 | < 4.00 | 
75 | CC(=O)[O-].Cc1ccnc(NS(=O)(=O)c2ccc(N=Cc3ccccc3[O-])cc2)n1.Cc1ccnc(NS(=O)(=O)c2ccc(N=Cc3ccccc3[O-])cc2)n1.[Co+2].[H+] | < 3.70 | 4.98 | 
76 | O=C(OCc1ccccc1)N(CCCCN(CCCNCc1ccccc1)C(=O)OCc1ccccc1)CCCNCc1ccccc1 | < 5.70 | 6.06 | 
77 | CN1c2ccccc2S(=O)(=O)n2c(CCc3ccccc3)nnc21 | < 3.98 | < 3.98 | 
78 | Cc1nnc2cc(C(=O)O)c3ccccc3n2c1=O | < 3.70 | < 3.70 | 
79 | CCCCCCCCCCN=C(N)CSSCC(N)=NCCCCCCCCCC | < 3.70 | 4.78 | 
80 | O=c1ncccn1C1OC(CO)C(O)C1F (centres undefined) |  |  | inactive
81 | CC(=O)NC(CCCCN)C(=O)NCc1ccccc1 (centres undefined) | < 3.04 | < 3.04 | 
82 | COC(=O)c1ccc(CCC2=CC(=O)C=CC2=O)cc1 | < 3.70 | 5.12 | 
83 | COC(=O)c1ccccc1CC1Cc2cc3c(cc2C1=O)CCC3 (centres undefined) | < 3.70 | 5.12 | 
84 | CC(OC(C)(C)C)C(NC(=O)C(CCCCNC(=O)OC(C)(C)C)NC(=O)C(Cc1c[nH]c2ccccc12)NC(=O)C(Cc1ccccc1)NC(=O)OCc1ccccc1)C(=O)NC(Cc1ccccc1)C(=O)O (centres undefined) (Cbz-FWK(Boc)T(tBu)F-OH; configuration not given here) | < 3.70 | 4.45 | 
85 | CCCCC(CC)CO[Si](OCC(CC)CCCC)(OCC(CC)CCCC)OCC(CC)CCCC (centres undefined) |  |  | inactive
86 | N#Cc1c2c(cn3c1nc1ccccc13)Cc1ccccc1-2 | < 3.70 | < 3.70 | 
87 | Nc1cc(Cl)ccc1N1C(=O)CCC1=O | 3.78 | < 3.70 | 
